Data taken from ChEMBL document CHEMBL1144867, “Antiviral amphipathic oligo- and polyribonucleotides: analogue development and biological studies” (J Med Chem, 2003).

Tested on: MRC5
Assay: Inhibitory activity of compound against human cytomegalovirus (HCMV) in MRC-5 cells.
Format: functional, cell-based

Nc1nc2c(ncn2COC(CO)CO)c(=O)[nH]1 [GANCICLOVIR]
EC50: 9.4 µM
